From patent US7528235B2, “Multi-functional antibodies” (The Regents of the Univarsity of California, priority 2003, dated 2009)

Legend:
2D12.5 = test: relative binding curves of 2D12.5 for Y-DOTA isomers and Y-DOTA molecules with different sidechain locations; design: species or system murine; conditions: for relative binding affinity, different sidechain locations: Y-DOTA molecules, FIG. 17; for relative binding affinity, Y-DOTA isomers: coordinated metal Y^3+, FIG. 16
From the text: FIG. 16 is a graphical display showing the relative binding curves of 2D12.5 for Y-DOTA isomers and Y-DTPA. 2D12.5 binds both the (R)- and (S)-isomers of 2-(4-nitrobenzyl)-DOTA when the coordinated metal is Y^3+ (the same behavior is expected for the other rare earths). The (S)-isomer confers Λ-helicity, while the (R)-isomer confers Δ-helicity to the acetate arms. […] Y-DOTA (no-sidearm) exists is solution as a racemic mixture of the coordination isomers.
FIG. 17 is a graphical display showing the relative binding curves of Y-DOTA molecules with different sidechain locations. […] Evaluation of the crystal structure seems to indicate that shorter substitutions at this position may bind with higher affinity. Substitutions at other locations may yield reasonably high affinitites as well. The (5-Amino-2-methoxy-phenyl)-carboxymethyl)-DOTA analyzed in this experiment was racemic, so it is not clear which isomer binds with higher affinity. The low pKa of the carboxymethyl proton makes it difficult to prepare a chirally pure molecule.

antibody 2D12.5 = test: competitive immunoassay (ELISA) of metal-DOTA complexes against immobilized Y-DOTA; format: binding, murine; conditions: 37° C., DOTA analog [S]-2-(p-nitrobenzyl)-DOTA
From the text: FIG. 13 is graphical display showing the relative binding of metal-DOTA complexes to antibody 2D12.5. A representative set of competitive binding curves obtained from ELISA experiments described in Example 3 below. Error bars (representing the standard error of the mean) are shown, but are generally smaller than the data points.
Elements plotted in the order Sc (open circle), Lu, Yb, Tm, Er, Ho, Y (open diamond), Dy, Tb, Gd, Eu, Sm, Nd, Pr, Ce, La. ΔΔG values relative to Y-DOTA, set at 0. Error bars represent standard error of the mean.
To determine the metal selectivity of the antibody 2D12.5, a competitive immunoassays was used to measure the binding constants of multiple metal-DOTA complexes relative to Y^3+-DOTA.
We examined the monoclonal antibody 2D12.5, initially developed to bind specifically to Y-DOTA for targeted radiotherapy (see, e.g., Goodwin et al., i Cancer Res. 54: 5937-5946 (1994)), in order to determine the scope of its activity. To assess the metal selectivity of antibody 2D12.5, a competitive immunoassay to measure the binding constants of various metal-DOTA complexes relative to the original Y^3+ complex was developed (FIG. 12). Briefly, 2D12.5 was incubated at 37° C. in the presence of immobilized Y-DOTA and a soluble metal-DOTA competitor. […] Binding was measured by standard methods known to those of skill in the art. […]

[1] = tested on: (S) nitrobenzyl-DOTA chelates; conditions: for (S) nitrobenzyl-DOTA chelates; cited from earlier work
Janus-DOTA = conditions: for Janus-DOTA, a bivalent form of DOTA; cited from earlier work
[2] = 24 hours after administration of the bound complex; cited from earlier work

O=C(O)CN1CCN(CC(=O)O)CCN(CC(=O)O)[C@@H](Cc2ccc([N+](=O)[O-])cc2)CN(CC(=O)O)CC1 (single isomer, unassigned) [(S)-isomer]
relative binding affinity, different sidechain locations (2D12.5): clearly stronger | relative binding affinity, Y-DOTA isomers (2D12.5): preferred isomer for binding

O=C(O)CN1CCN(CC(=O)O)CCN(CC(=O)O)C(Cc2ccc([N+](=O)[O-])cc2)CN(CC(=O)O)CC1 (single isomer, unassigned; isomer 2) [(R)-isomer, 2-(4-nitrobenzyl)-DOTA]
relative binding affinity, Y-DOTA isomers (2D12.5): affinity decreases less than an order of magnitude

(5-Amino-2-methoxy-phenyl)-carboxymethyl)-DOTA
relative binding affinity, different sidechain locations (2D12.5): still sufficiently strong

Gd-DOTA
binding strength relative to the original Y^3+ complex (in words) (antibody 2D12.5): bind more tightly than the original Y^3+ complex | binding strength relative to the original Y^3+ complex (in words) (antibody 2D12.5; listed as Gd^3+): strongest binders

B1: 2D12.5: anti-chelate monoclonal antibody that binds metal chelates of DOTA and similar structures (antibody, listed as Mus musculus, V domains shown)
VH: QVKLQESGPGLVQPSQSLSITCTVSGFSLTDYGVHWVRQSPGKGLEWLGVIWSGGGTAYTAAFISRLNIYKDNSKNQVFFEMNSLQANDTAMYYCARRGSYPYNYFDVWGQGTTVTVSS
VL: QAVVTQESALTTSPGETVTLTCRSSTGAVTTSNYANWVQEKPDHLFTGLIGGNNNRPPGVPARFSGSLIGDKAALTIAGTQTEDEAIYFCALWYSNHWVFGGGTRLTVLG
modifications: murine monoclonal antibody 2D12.5 heavy chain variable domain (VH); murine monoclonal antibody 2D12.5 light chain variable domain (VL)
binding constant Ks [1]: ≈ 10^8 | binding constant Ks (Janus-DOTA): ≈ 10^8 | 2D12.5 bound to metal chelates present [2]: 74-96%
